# Laboratory results published in patent US12077503B2, “Substituted cyclic amides and their use as herbicides” (FMC CORPORATION, priority 2015, dated 2024).
# Assays:
# Format in all cases: in vivo
# Kochia (Kochia scoparia) [1] = experiment: Test A preemergence; settings: Bassia scoparia, pre-emergence, 240 h
# Outline: (§1)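 Seeded soil received test chemicals as a preemergence directed spray, and seedlings at one to two leaves, 2–10 cm tall, received them postemergence, in a non-phytotoxic, surfactant-containing solvent mixture. Pots were held in a greenhouse for approximately 10 d, then rated for injury from 0, no effect, to 100, complete control.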
# [2] = tested on: barnyardgrass (Echinochloa crus-galli); experiment: Test A preemergence; settings: Echinochloa crus-galli, pre-emergence, 240 h
# Outline: as §1
# [3] = tested on: giant foxtail (Setaria faberii); experiment: Test A preemergence; settings: Setaria faberi, pre-emergence, 240 h
# Outline: as §1
# [4] = tested on: pigweed (Amaranthus retroflexus); experiment: Test A preemergence; settings: Amaranthus retroflexus, pre-emergence, 240 h
# [5] = tested on: ragweed (common ragweed, Ambrosia elatior); experiment: Test A preemergence; settings: Ambrosia artemisiifolia, pre-emergence, 240 h
# Outline: as §1
# [6] = tested on: ryegrass, Italian (Italian ryegrass, Lolium multiflorum); experiment: Test A preemergence; settings: Lolium multiflorum, pre-emergence, 240 h
# Outline: as §1
# [7] = tested on: Galium (catchweed bedstraw, Galium aparine); experiment: Test A postemergence; settings: Galium, post-emergence, 240 h, 125 g ai/ha, postemergence, visual injury rating after approximately 10 d; read-out: Galium plant response rating (0 to 100 scale, 0 no effect, 100 complete control)
# Outline: as §1
# Kochia (Kochia scoparia) [8] = experiment: Test A postemergence; settings: Bassia scoparia, post-emergence, 240 h, 125 g ai/ha, postemergence, visual injury rating after approximately 10 d; read-out: Kochia plant response rating (0 to 100 scale, 0 no effect, 100 complete control)
# Outline: as §1
# [9] = tested on: barnyardgrass (Echinochloa crus-galli); experiment: Test A postemergence; settings: Echinochloa crus-galli, post-emergence, 240 h, 125 g ai/ha, postemergence, visual injury rating after approximately 10 d; read-out: Barnyardgrass plant response rating (0 to 100 scale, 0 no effect, 100 complete control)
# Outline: as §1
# [10] = tested on: blackgrass (Alopecurus myosuroides); experiment: Test A postemergence; settings: Alopecurus myosuroides, post-emergence, 240 h, 125 g ai/ha, postemergence, visual injury rating after approximately 10 d; read-out: Blackgrass plant response rating (0 to 100 scale, 0 no effect, 100 complete control)
# Outline: as §1
# corn (Zea mays) = experiment: Test A postemergence; settings: Zea mays, post-emergence, 240 h, 125 g ai/ha, postemergence, visual injury rating after approximately 10 d; read-out: Corn plant response rating (0 to 100 scale, 0 no effect, 100 complete control)
# Outline: as §1
# [11] = tested on: giant foxtail (Setaria faberii); experiment: Test A postemergence; settings: Setaria faberi, post-emergence, 240 h, 125 g ai/ha, postemergence, visual injury rating after approximately 10 d; read-out: Foxtail, Giant plant response rating (0 to 100 scale, 0 no effect, 100 complete control)
# Outline: as §1
# [12] = tested on: pigweed (Amaranthus retroflexus); experiment: Test A postemergence; settings: Amaranthus retroflexus, post-emergence, 240 h, 125 g ai/ha, postemergence, visual injury rating after approximately 10 d; read-out: Pigweed plant response rating (0 to 100 scale, 0 no effect, 100 complete control)
# Outline: as §1
# [13] = tested on: ragweed (common ragweed, Ambrosia elatior); experiment: Test A postemergence; settings: Ambrosia artemisiifolia, post-emergence, 240 h, 125 g ai/ha, postemergence, visual injury rating after approximately 10 d; read-out: Ragweed plant response rating (0 to 100 scale, 0 no effect, 100 complete control)
# Outline: as §1
# [14] = tested on: ryegrass, Italian (Italian ryegrass, Lolium multiflorum); experiment: Test A postemergence; settings: Lolium multiflorum, post-emergence, 240 h, 125 g ai/ha, postemergence, visual injury rating after approximately 10 d; read-out: Ryegrass, Italian plant response rating (0 to 100 scale, 0 no effect, 100 complete control)
# Outline: as §1
# [15] = tested on: wheat (Triticum aestivum); experiment: Test A postemergence; settings: Triticum aestivum, post-emergence, 240 h, 125 g ai/ha, postemergence, visual injury rating after approximately 10 d; read-out: Wheat plant response rating (0 to 100 scale, 0 no effect, 100 complete control)
# Outline: as §1
smiles,measurement,setting,value
CN1C[C@H](c2cc(F)cc(F)c2)[C@@H](C(=O)Nc2ccccc2[S@@+](C)[O-])C1=O [Compound 872],pest or weed control at 125 g/ha,"Kochia (Kochia scoparia) [1]; 125 g ai/ha, preemergence, 0 to 100 scale where 0 is no effect and 100 is complete control, read-out: Kochia plant response rating",0%
same,pest or weed control at 500 g/ha,"Kochia (Kochia scoparia) [1]; 500 g ai/ha, Preemergence, visual injury vs untreated controls after approximately 10 d, read-out: Kochia plant response rating (0 to 100 scale where 0 is no effect and 100 is complete control)",80%
same,pest or weed control at 125 g/ha,"[2]; 125 g ai/ha, preemergence, 0 to 100 scale where 0 is no effect and 100 is complete control, read-out: Barnyardgrass plant response rating",90%
same,pest or weed control at 500 g/ha,"[2]; 500 g ai/ha, Preemergence, visual injury vs untreated controls after approximately 10 d, read-out: Barnyardgrass plant response rating (0 to 100 scale where 0 is no effect and 100 is complete control)",100%
same,pest or weed control at 125 g/ha,"[3]; 125 g ai/ha, preemergence, 0 to 100 scale where 0 is no effect and 100 is complete control, read-out: Foxtail, Giant plant response rating",90%
same,pest or weed control at 500 g/ha,"[3]; 500 g ai/ha, Preemergence, visual injury vs untreated controls after approximately 10 d, read-out: Foxtail, Giant plant response rating (0 to 100 scale where 0 is no effect and 100 is complete control)",90%
same,pest or weed control at 125 g/ha,"[4]; 125 g ai/ha, preemergence, 0 to 100 scale where 0 is no effect and 100 is complete control, read-out: Pigweed plant response rating",0%
same,pest or weed control at 500 g/ha,"[4]; 500 g ai/ha, Preemergence, visual injury vs untreated controls after approximately 10 d, read-out: Pigweed plant response rating (0 to 100 scale where 0 is no effect and 100 is complete control)",60%
same,pest or weed control at 125 g/ha,"[5]; 125 g ai/ha, preemergence, 0 to 100 scale where 0 is no effect and 100 is complete control, read-out: Ragweed plant response rating",60%
same,pest or weed control at 500 g/ha,"[5]; 500 g ai/ha, Preemergence, visual injury vs untreated controls after approximately 10 d, read-out: Ragweed plant response rating (0 to 100 scale where 0 is no effect and 100 is complete control)",100%
same,pest or weed control at 125 g/ha,"[6]; 125 g ai/ha, preemergence, 0 to 100 scale where 0 is no effect and 100 is complete control, read-out: Ryegrass, Italian plant response rating",0%
same,pest or weed control at 500 g/ha,"[6]; 500 g ai/ha, Preemergence, visual injury vs untreated controls after approximately 10 d, read-out: Ryegrass, Italian plant response rating (0 to 100 scale where 0 is no effect and 100 is complete control)",40%
same,pest or weed control at 125 g/ha,[7],50%
same,pest or weed control at 125 g/ha,Kochia (Kochia scoparia) [8],50%
same,pest or weed control at 125 g/ha,[9],90%
same,pest or weed control at 125 g/ha,[10],20%
same,plant injury at 125 g/ha,corn (Zea mays),30%
same,pest or weed control at 125 g/ha,[11],80%
same,pest or weed control at 125 g/ha,[12],30%
same,pest or weed control at 125 g/ha,[13],0%
same,pest or weed control at 125 g/ha,[14],0%
same,plant injury at 125 g/ha,[15],20%
